Biological target: T1, TAS2R138 (Mus musculus, UniProt Q7TQA6)
T1 construct: endogenous in cells; host or cells: RAW264.7 murine macrophages (ATCC)
T1 sequence (Q7TQA6 1-331): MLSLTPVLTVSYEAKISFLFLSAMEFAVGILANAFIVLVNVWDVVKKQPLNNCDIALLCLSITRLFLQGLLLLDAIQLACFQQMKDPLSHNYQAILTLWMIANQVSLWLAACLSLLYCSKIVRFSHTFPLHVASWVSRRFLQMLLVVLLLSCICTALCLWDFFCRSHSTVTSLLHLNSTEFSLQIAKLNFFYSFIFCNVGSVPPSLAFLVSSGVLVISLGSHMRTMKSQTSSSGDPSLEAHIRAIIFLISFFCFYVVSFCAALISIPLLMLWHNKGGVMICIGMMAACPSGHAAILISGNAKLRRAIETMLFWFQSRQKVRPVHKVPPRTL
Experiment: TAS2R38/TAS2R138 inhibition experiment: TNFα secretion of RAW264.7 cells pre-treated with probenecid
Format: cell-based
Conditions: 1 mM probenecid, one hour before LPS and IFNγ, six hours
Experimental: In RAW264.7 cells, inflammation was triggered with LPS (10 ng/mL, Sigma) and IFNγ (10 U/mL, R&Dsystems) for 2 h or 6 h, depending on the experiments. PBMC were exposed to LPS (10 ng/mL) and AHL for 24 h. For TAS2R38 inhibition experiments, cells were exposed to TAS2R38 allosteric inhibitor probenecid (1 mM, Sigma) for one hour before adding AHLs and the inflammatory cocktail, without changing the media.
At the end of cell treatment, the medium was centrifuged at 300g for 5 min at 4 °C. Supernatant was frozen at − 80 °C until ELISA assays. TNFα and IL-1β ELISA kits were purchased from R&D systems and performed according to the manufacturer’s instructions. Briefly, plates were coated with a capture antibody and incubated overnight. Wells were blocked using 1% bovine serum albumin-PBS solution (Sigma), then exposed to cell supernatants at room temperature for two hours. Wells were washed and incubated with the detection antibody for an additional two hours. After thorough washing, Streptavidin-HRP solution was added for 20 min. Wells were washed, then incubated with TMB (Biolegend) solution for 20 min and the reaction was stopped using 1 M H2SO4. Absorbance was measured by a spectrometer (FLUOstar Omega; BMG Labtech) at 450 nm and the absorbance at 540 nm was subtracted.

effect on TNFα secretion in activated cells cultured in absence of 3-oxo-C12:2-HSL: no effect
Compound: CCCN(CCC)S(=O)(=O)c1ccc(C(=O)O)cc1 [probenecid, reference compound]
